The subject of assay [1] is Wnt pathway activity (SW480 colon carcinoma cells stably expressing the Sp5-Luc reporter). As to the kind of experiment: Wnt pathway activity screening assay (Sp5-Luc reporter gene assay). The following applies: Homo sapiens, SW480, Table 4; SW480 cells stably expressing Sp5-Luc reporter, 10-point dose-response from 10 μM, 36 to 48 hours.
The target of another assay is CLK3 kinase (Homo sapiens, UniProt P49761). The experiment in a line: CLK3 kinase activity assay (Z-lyte FRET).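 Also: kinase activity read as coumarin/fluorescein emission ratio by FRET, unphosphorylated peptide as 0% and phosphorylated peptide as 100% control, values from non-linear regression of dose-response curves.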 The format is biochemical. The following applies: Z-lyte Ser/Thr 18 peptide, 156 μM ATP, 1 h at room temperature.
The test system of assay [2] is primary human mesenchymal stem cells (hMSCs). The experiment in a line: Chondrogenesis screening using primary human mesenchymal stem cells. The following applies: Homo sapiens, Mesenchymal stem cells, hMSC chondrogenesis; for Emax: maximum activity relative to TGF-β3 (10 ng/mL) positive control, read-out: Max. Activity as % TGF-β3 activity; for EC50: concentration required to induce 50% levels of chondrogenesis with TGF-β3 as positive control, read-out: Conc (nM) of 50% TGF-β3 activity. The format is cell-based. Put shortly:
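Derived values are EC50 for 50% chondrogenesis, maximal activity and the dose giving it. These come from nodule area in passage 3–6 primary hMSCs, expressed as fold change over the mean of 3 same-plate DMSO wells, 2–3 replicates per concentration. TGF-β3 served as positive control.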

A further assay deals with CLK2 kinase (Homo sapiens, UniProt P49760). The experiment in a line: CLK2 kinase activity assay (Z-lyte FRET).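 Also: FRET read-out as coumarin to fluorescein emission ratio, unphosphorylated peptide as 0% and phosphorylated peptide as 100% controls, duplicate reactions, non-linear regression fit of dose-response curves.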 The format is biochemical. The following applies: Z-lyte Ser/Thr 6 peptide, 60 μM ATP, 1 h at room temperature.

The source of these data is patent publication US20230000842A1, “METHODS OF TREATING CARTILAGE DISORDERS THROUGH INHIBITION OF CLK AND DYRK” (SAMUMED, LLC, priority 2019, published 2023).

Where only a bound is given, the exact number is not on record here.

Chain of CLK2 kinase (P49760 whole entry): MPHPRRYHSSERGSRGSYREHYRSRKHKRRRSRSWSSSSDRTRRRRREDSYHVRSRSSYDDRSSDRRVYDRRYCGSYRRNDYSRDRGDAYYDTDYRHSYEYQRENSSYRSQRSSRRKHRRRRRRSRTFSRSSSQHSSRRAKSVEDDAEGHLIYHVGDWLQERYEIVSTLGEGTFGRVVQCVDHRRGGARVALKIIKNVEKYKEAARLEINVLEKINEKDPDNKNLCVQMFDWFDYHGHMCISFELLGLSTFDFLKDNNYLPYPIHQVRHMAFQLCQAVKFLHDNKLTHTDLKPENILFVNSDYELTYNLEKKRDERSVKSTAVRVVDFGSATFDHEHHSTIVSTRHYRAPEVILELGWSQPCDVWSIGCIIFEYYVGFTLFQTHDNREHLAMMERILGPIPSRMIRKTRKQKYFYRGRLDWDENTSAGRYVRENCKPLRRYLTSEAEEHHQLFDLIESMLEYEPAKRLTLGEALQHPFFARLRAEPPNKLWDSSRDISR
Chain of CLK3 kinase (P49761 whole entry): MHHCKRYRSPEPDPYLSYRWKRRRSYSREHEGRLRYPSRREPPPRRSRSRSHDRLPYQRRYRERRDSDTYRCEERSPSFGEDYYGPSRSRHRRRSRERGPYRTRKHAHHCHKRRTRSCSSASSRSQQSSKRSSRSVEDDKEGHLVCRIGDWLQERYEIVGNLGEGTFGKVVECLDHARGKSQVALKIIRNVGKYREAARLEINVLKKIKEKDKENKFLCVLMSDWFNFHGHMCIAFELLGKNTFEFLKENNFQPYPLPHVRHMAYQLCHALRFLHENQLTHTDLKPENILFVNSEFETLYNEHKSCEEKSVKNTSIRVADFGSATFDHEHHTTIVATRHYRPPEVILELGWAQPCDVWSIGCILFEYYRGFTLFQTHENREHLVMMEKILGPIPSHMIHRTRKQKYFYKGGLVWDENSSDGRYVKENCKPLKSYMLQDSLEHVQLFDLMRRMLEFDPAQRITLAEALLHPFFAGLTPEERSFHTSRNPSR
Procedure for CLK3 kinase: This is a non-radioactive assay using fluorescence resonance energy transfer (FRET) between coumarin and fluorescein to detect kinase activity which is represented as a ratio of coumarin emission/fluorescein emission.
The mixture was allowed to incubate with the representative compounds for one hour at room temperature. All reactions were performed in duplicate. Unphosphorylated (“0% Control”) and phosphorylated (“100% control”) forms of Ser/Thr 18 served as control reactions. Additionally, an 11-point dose-response curve of Staurosporine (1 μM top) was run to serve as a positive compound control.
After incubation, Development Reagent A was diluted in Development Buffer then added to the reaction and allowed to further incubate for one hour at room temperature.
Dose-response curves were generated and inhibitory concentration (IC50) values were calculated using non-linear regression curve fit in the Dotmatics' Studies Software (Bishops Stortford, UK).

Take `Cc1ccncc1-c1cnc2[nH]nc(-c3cc4c(-c5cccnc5)cncc4[nH]3)c2c1` [compound 345]: the results for the EC50 (in assay [1]; on CLK3 kinase; on CLK2 kinase) were 2250 nM, 107 nM and 3 nM, respectively. In addition, the Emax in assay [2] stood at 17.4%.

Regarding `O=C(Nc1cncc(-c2cc3c(-c4cc5cnccc5[nH]4)n[nH]c3cn2)c1)c1ccccc1` [compound 437], the EC50 in assay [1] was found to be 580 nM; at CLK3 kinase, 62 nM; in assay [2], 10 nM; on CLK2 kinase, 2 nM. The Emax in assay [2] was found to be 152%.

Consider `CS(=O)(=O)NCc1cc(F)cc(-c2nccc3[nH]c(-c4n[nH]c5ncc(-c6cncc(NC(=O)C7CCC7)c6)cc45)cc23)c1` [compound 528], for which the EC50 was 3640 nM in assay [1], 59 nM at CLK3 kinase, 300 nM in assay [2] and 5 nM on CLK2 kinase. Besides, the Emax in assay [2] amounted to 51.6%.

`CCCCC(=O)Nc1cncc(-c2cc3c(-c4cc5c(-c6cc(F)cc(CNS(C)(=O)=O)c6)nccc5[nH]4)n[nH]c3cn2)c1` [compound 521]: the EC50 in assay [1] is above 10000 nM; at CLK3 kinase, 776 nM; in assay [2], 10 nM; at CLK2 kinase, 9 nM. In addition, the Emax in assay [2] turned out to be 111%.

In the case of `c1cc(-c2cncc3[nH]c(-c4n[nH]c5ccc(-c6cncc(CN7CCCCC7)c6)nc45)cc23)ccn1` [compound 403], the EC50 in assay [1] is above 10000 nM; on CLK3 kinase, 306 nM; in assay [2], 10 nM; at CLK2 kinase it was 6 nM. In addition, the Emax in assay [2] stood at 97.1%.

As for `COc1cncc(-c2ccc3[nH]nc(-c4cc5c(-c6ccoc6)nccc5[nH]4)c3c2)c1` [compound 504], the EC50 in assay [1] was 643 nM; on CLK3 kinase, 117 nM; at CLK2 kinase it was 6 nM. In assay [2], the Emax was 35.5%.

`O=C(Nc1cncc(-c2cc3c(-c4cc5c(-c6ccc(F)cc6)nccc5[nH]4)n[nH]c3cn2)c1)C1CC1` [compound 314]: the EC50 in assay [1] is 844 nM; on CLK3 kinase it was 202 nM; in assay [2], 30 nM; at CLK2 kinase it was 10 nM. In assay [2], the Emax amounted to 96.2%.

As for `CN1CCN(c2ccnc3[nH]c(-c4n[nH]c5ncc(-c6cn[nH]c6)cc45)cc23)CC1` [compound 497], the EC50 in assay [1] is above 10000 nM; at CLK3 kinase it was 678 nM; at CLK2 kinase, 5 nM. Moreover, the Emax in assay [2] stood at 20.1%.

As to `CCC(=O)Nc1cncc(-c2ccc3[nH]nc(-c4nc5c(-c6cccc(F)c6)cncc5[nH]4)c3c2)c1` [compound 120], the EC50 turned out to be 4.6 nM in assay [1], 61 nM on CLK3 kinase, 30 nM in assay [2] and 23 nM at CLK2 kinase. In addition, the Emax in assay [2] was 139%.

With `Cc1cn(-c2cncc3[nH]c(-c4n[nH]c5ccc(-c6cncc(NC(=O)C7CCC7)c6)nc45)nc23)cn1` [compound 227], the values for the EC50 (in assay [1]; at CLK3 kinase; at CLK2 kinase) were above 10000 nM, 1300 nM and 10 nM, respectively. Also, the Emax in assay [2] is 47.2%.

In the case of `CC(C)Nc1cncc(-c2cnc3[nH]nc(-c4cc5c(-c6cccnc6)ccnc5[nH]4)c3c2)c1` [compound 362], the EC50 in assay [1] was above 10000 nM; on CLK3 kinase, 292 nM; in assay [2], 10 nM; at CLK2 kinase it was 4 nM. In assay [2], the Emax turned out to be 135%.

Regarding `c1csc(-c2cncc3[nH]c(-c4n[nH]c5ncc(-c6cncc(CNCC7CCCC7)c6)cc45)nc23)c1` [compound 259], the EC50 in assay [1] was 98 nM; on CLK3 kinase it was 167 nM; on CLK2 kinase, 4 nM. Moreover, the Emax in assay [2] was 74.6%.

For `O=C(Nc1cncc(-c2cnc3[nH]nc(-c4cc5c(-c6ccccc6F)nccc5[nH]4)c3c2)c1)C1CC1` [compound 328], the EC50 worked out at 321 nM in assay [1], 47 nM at CLK3 kinase, 30 nM in assay [2] and 6 nM on CLK2 kinase. Besides, in assay [2], the Emax stood at 78.1%.

As for `O=C(CC1CCNCC1)Nc1cncc(-c2ccc3[nH]nc(-c4cc5c(-c6ccoc6)ccnc5[nH]4)c3n2)c1` [compound 501], the EC50 was above 10000 nM in assay [1], 418 nM at CLK3 kinase, 10 nM in assay [2] and 11 nM at CLK2 kinase. The Emax in assay [2] was 102%.

With `CC(C)CC(=O)Nc1cncc(-c2ccc3[nH]nc(-c4cc5c(-c6cc(F)cc(CNS(C)(=O)=O)c6)nccc5[nH]4)c3n2)c1` [compound 525], the EC50 in assay [1] turned out to be 479 nM; at CLK3 kinase, 38 nM; at CLK2 kinase it was 8 nM. Also, in assay [2], the Emax stood at 33.1%.

As to `Cc1ccc(-c2cccc3[nH]c(-c4n[nH]c5ccc(-c6cncc(N)c6)nc45)nc23)s1` [compound 271], the EC50 is 66.3 nM in assay [1], 34 nM on CLK3 kinase, 10 nM in assay [2] and 2 nM on CLK2 kinase. Also, the Emax in assay [2] worked out at 87.9%.

As to `CC(C)(C)C(=O)Nc1cncc(-c2cnc3[nH]nc(-c4nc5c(-c6ccoc6)cncc5[nH]4)c3c2)c1` [compound 232], the EC50 came to 70 nM in assay [1], 143 nM at CLK3 kinase, 30 nM in assay [2] and 5 nM on CLK2 kinase. In addition, in assay [2], the Emax stood at 144%.

Turning to `CC(C)C(=O)Nc1cncc(-c2cnc3[nH]nc(-c4cc5c(-c6cc(F)cc(CNS(C)(=O)=O)c6)cncc5[nH]4)c3c2)c1` [compound 519], the values for the EC50 (in assay [1]; on CLK3 kinase; on CLK2 kinase) were above 10000 nM, 236 nM and 18 nM, respectively. In addition, the Emax in assay [2] came out at 59.6%.

`FC1(F)CCN(Cc2cncc(-c3ccc4[nH]nc(-c5nc6c(N7CCCCC7)cncc6[nH]5)c4c3)c2)C1` [compound 211]: the EC50 amounted to 20 nM in assay [1], 107 nM at CLK3 kinase and 8 nM at CLK2 kinase. For the same compound, in assay [2], the Emax stood at 80.1%.

With `CCCCC(=O)Nc1cncc(-c2cnc3[nH]nc(-c4cc5c(-c6ccncc6)cncc5[nH]4)c3c2)c1` [compound 386], the EC50 in assay [1] is above 10000 nM; at CLK3 kinase, 201 nM; on CLK2 kinase, 8 nM. In addition, in assay [2], the Emax came out at 70.4%.

`Oc1cncc(-c2ccc3[nH]nc(-c4nc5c(-c6cccc(F)c6)nccc5[nH]4)c3n2)c1` [compound 144]: the EC50 in assay [1] is 460 nM; at CLK3 kinase it was 93 nM; in assay [2], 6.86 nM; on CLK2 kinase it was 5 nM. The Emax in assay [2] turned out to be 56.7%.

For `CCCCC(=O)Nc1cncc(-c2cc3c(-c4cc5cnccc5[nH]4)n[nH]c3cn2)c1` [compound 422], the EC50 in assay [1] stood at 3570 nM; on CLK3 kinase, 54 nM; on CLK2 kinase it was 3 nM. In addition, in assay [2], the Emax was determined as 49.9%.

In the case of `CN(C)Cc1cncc(-c2ccc3[nH]nc(-c4nc5c(-c6cccc(F)c6)nccc5[nH]4)c3n2)c1` [compound 138], the EC50 in assay [1] came out at 1050 nM; on CLK3 kinase, 197 nM; in assay [2], 30 nM; on CLK2 kinase, 1 nM. Also, in assay [2], the Emax came out at 75.6%.

As for `CCCC(=O)Nc1cncc(-c2ccc3[nH]nc(-c4nc5c(-c6ccsc6)cncc5[nH]4)c3n2)c1` [compound 247], the EC50 in assay [1] worked out at 3640 nM; on CLK3 kinase, 48 nM; in assay [2], 20.6 nM; at CLK2 kinase, 2 nM. Besides, the Emax in assay [2] was determined as 58.4%.

For `CC(C)CC(=O)Nc1cncc(-c2cnc3[nH]nc(-c4cc5c(-c6cccnc6)ccnc5[nH]4)c3c2)c1` [compound 352], the EC50 in assay [1] was above 10000 nM; on CLK3 kinase, 9840 nM; on CLK2 kinase it was 3 nM. In assay [2], the Emax was 43.5%.

Regarding `Cc1ccc(-c2cncc3[nH]c(-c4n[nH]c5cnc(-c6cncc(N)c6)cc45)nc23)s1` [compound 274], the EC50 in assay [1] is 10.9 nM; on CLK3 kinase it was 203 nM; in assay [2] it was 100 nM; at CLK2 kinase, 11 nM. The Emax in assay [2] came out at 162%.

With `CC(C)(C)CC(=O)Nc1cncc(-c2ccc3[nH]nc(-c4nc5ccncc5[nH]4)c3c2)c1` [compound 202], the EC50 amounted to 21 nM in assay [1], 65 nM at CLK3 kinase, 100 nM in assay [2] and 2 nM on CLK2 kinase. Besides, in assay [2], the Emax stood at 152%.

With `CN(C)CCOc1cncc(-c2ccc3[nH]nc(-c4nc5c(-c6cccs6)cccc5[nH]4)c3n2)c1` [compound 261], the EC50 in assay [1] is 3110 nM; on CLK3 kinase, 150 nM; in assay [2] it was 10 nM; on CLK2 kinase it was 2 nM. Besides, in assay [2], the Emax was found to be 142%.

In the case of `O=C(Nc1cncc(-c2cc3c(-c4cc5c(N6CCCCC6)nccc5[nH]4)n[nH]c3cn2)c1)C1CCC1` [compound 461], the EC50 in assay [1] was 4070 nM; on CLK3 kinase, 342 nM; on CLK2 kinase it was 19 nM. Further, the Emax in assay [2] turned out to be 42.4%.

`Nc1cncc(-c2ccc3[nH]nc(-c4cc5c(-c6ccccc6F)ccnc5[nH]4)c3c2)c1` [compound 320]: the EC50 in assay [1] stood at 131 nM; at CLK3 kinase, 33 nM; at CLK2 kinase, 9 nM. The Emax in assay [2] was determined as 23.5%.

As for `CS(=O)(=O)NCc1cc(F)cc(-c2cncc3[nH]c(-c4n[nH]c5ccc(-c6cncc(NC(=O)C7CCC7)c6)cc45)cc23)c1` [compound 527], the EC50 is 554 nM in assay [1], 66 nM on CLK3 kinase and 11 nM on CLK2 kinase. Further, the Emax in assay [2] came out at 14.5%.
